Data: ChEMBL document CHEMBL5604062, “ASAP - ZIKV NS2B-NS3 protease fluorescence dose response” (2024)
Values joined by “and” are separate entries in the source; they are usually repeats but may differ in a detail not shown here. Identical values can stand only once.

Target: Nonstructural protein 3 (Zika virus, UniProt A0A024AXB9)
Test: Functional biochemical assay to identify treatments for viral infectious disease that targets Zika NS2B-NS3 protease. Utilizing a direct enzyme activity measurement method, reading the fluorescence intensity is used to characterize the relative potency of inhibitors as IC50.
Parameters: species or system PRVABC59

Chain of Nonstructural protein 3 (A0A024AXB9 whole entry): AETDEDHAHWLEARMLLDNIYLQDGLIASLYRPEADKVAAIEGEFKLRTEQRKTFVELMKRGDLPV

IC50	SMILES
> 25 µM	Cc1nc(C2CC2)sc1C(=O)Nc1cc(CCCN)ccn1
26.8 µM	NCc1ccc2c(c1)[C@H](N1CCCC1=O)C[C@H](c1cc(Cl)cc(NC(=O)OCc3ccccc3)c1)N2
> 99.5 µM	O=C(O)c1ccn(C2CCN(Cc3c[nH]c4ccccc34)CC2)n1
45.2 µM	NCc1cccc(NC(=O)c2cc(Cl)cc3c2OCCNC3)c1
> 99.5 µM	c1ccc(-c2ncc(CN3CCC(c4nc5ccccc5s4)CC3)[nH]2)cc1
> 99.5 µM	CCn1c(=O)c(N2CC[C@H](CO)C2)nc2ccc(C(=O)NCc3ccccc3)cc21
41.5 µM	O=C(Nc1cc(Cl)cc(C(=O)Nc2cc(-c3nnn[nH]3)ccc2F)c1)OCc1ccccc1
> 99.5 µM	Cn1nc2c(c1NC(=O)c1cc(Cl)cc(NC(=O)OCc3ccccc3)c1)CNC2
> 25 µM	Cc1c(C(=O)Nc2cccc(-c3ccc(=O)[nH]n3)c2)cc(C2CC2)n1C
> 99.5 µM	Cn1nccc1C1CCN(Cc2c[nH]c3ccccc23)CC1
> 99.5 µM	Cn1cc(CCOc2ccc([C@@H](NC(=O)OCc3ccccc3)C(=O)Nc3cccc(CN)c3)cc2)nn1
> 99.5 µM	CC[C@H](Cc1nnn[nH]1)c1ccc(NC(=O)c2cc(Cl)cc(Cl)c2OC)cc1
0.15 µM	O=C(NCC(F)F)[C@H](Nc1ccc2c(c1)CNC2)c1cc(Br)ccc1OCc1ccccn1
80 µM	CN(C(=O)c1cc(Cl)cc2[nH]ncc12)c1ccc2c(c1)CNC2
> 99.5 µM	N#Cc1ccc(OCCn2nnn(-c3ccccc3)c2=O)cc1
0.736 µM	Cc1cc(CN)cc(NC(=O)c2cc(Cl)cc3[nH]ncc23)c1
> 25 µM	NCc1cc(Cl)cc(C(=O)Nc2ccc3c(c2)C(=O)OC3)c1
> 25 µM	C#C[C@H](Nc1ccc2c(c1)CNC2)c1cccc2c1CCNC2=O
> 99.5 µM	C[C@H]1CCC[C@H](C(=O)Nc2cccc(CN)c2)O1
0.456 µM and 0.295 µM	O=C(Nc1ccc2c(c1)CNC2)c1cc(F)cc(-c2ccc3c(=O)[nH]ncc3c2)c1
11.9 µM	CN(C)C(=O)c1cc(CN)cc([C@@H]2C[C@H]2c2cc(Cl)cc(NC(=O)OCc3ccccc3)c2)c1
> 99.5 µM	CCn1ccnc(N2CC[C@H](c3ccc(OC)nc3)C2)c1=O
0.027 µM and 0.025 µM	O=C(Nc1ccc2c(c1)CNC2)c1cc(Br)cc2[nH]c(=O)[nH]c12
> 25 µM	Cc1cc(N2CCC(NC(=O)c3cccc4c3CC(=O)N4)CC2)[nH]n1
> 99.5 µM	O=C(O)c1cc(Cl)ccc1NS(=O)(=O)c1ccc(N[C@H]2CCOC2)nc1

IC50	SMILES
3.17 µM	NCc1cc(/C=C/C(=O)O)cc(NC(=O)c2cc(Cl)cc(NC(=O)OCc3ccccc3)c2)c1
> 25 µM	CCN(CC)C[C@H]1CCCN(C(=O)Nc2ccc3c(c2)CNC3)C1
> 25 µM	O=C(Nc1ccc2c(c1)CNC2)c1cc(C(F)(F)F)c2cn[nH]c2n1
> 99.5 µM	N#C[C@H](c1cc(Cl)cc(C2CC2)c1)N1c2cnccc2C[C@H]1C(=O)O
46.9 µM	Nc1nccc(C(=O)Nc2ccc3c(c2)CNC3)n1
5.8 µM	CCc1ccc(-c2ccc([C@@H](NC(=O)OCc3ccccc3)C(=O)Nc3cccc(CN)c3)cc2)cc1
4.35 µM	NCc1ccc(F)c(NC(=O)c2cc(Cl)cc(NC(=O)OCc3ccccc3)c2)c1
> 99.5 µM	O=C(O)c1cc(Cl)ccc1S(=O)(=O)Nc1ccc(N2CCCCC2)c(F)c1
> 99.5 µM	O=S(=O)(Nc1ccc(Cl)cc1CO)c1ccc(Oc2ccccc2Cl)cc1
2.19 µM	O=C(Nc1ccc2c(c1)CNC2)c1ccc2c(Br)csc2c1
> 99.5 µM	NC[C@H]1CCN1C(=O)[C@@H](NC(=O)OCc1ccccc1)c1ccc(OCc2ccccc2)cc1
0.126 µM	CSCCCNC(=O)[C@H](Nc1ccc2c(c1)CNC2)c1cc(Cl)cc(C2CC2)c1
> 25 µM	Cc1c(C(=O)Nc2cc(C(=O)N3CCC(O)CC3)ccn2)cc(C2CC2)n1C
> 99.5 µM	Cc1nn(C)cc1S(=O)(=O)N[C@@H](C(=O)Nc1cccc(CN)c1)c1ccc(OCc2ccccc2)cc1
19 µM and 11.6 µM	NCc1cccc(CNC(=O)[C@@H](NC(=O)OCc2ccccc2)c2ccc(OCc3ccccc3)cc2)c1
5.42 µM	NCCCCc1ccc(NC(=O)c2cc(Cl)cc(NC(=O)OCc3ccccc3)c2)cc1
> 99.5 µM	O=C(Nc1cc(Cl)cc(C(=O)Nc2ccc([C@H]3CNCCO3)cc2)c1)OCc1ccccc1
> 99.5 µM	N#C[C@H](Nc1cccc(-c2nn[nH]n2)c1)c1cc(Cl)cc2[nH]ncc12
> 99.5 µM	NCc1cccc(NC(=O)[C@H]2Cc3ccccc3N2C(=O)OCc2ccccc2)c1
0.443 µM	O=C(Nc1ccc2c(c1)CNC2)c1cncc2[nH]ncc12
0.504 µM	O=C(Nc1ccc2c(c1)CNCC2)c1cc(Cl)cc2[nH]ncc12
> 99.5 µM	O=C(O)c1nscc1NS(=O)(=O)c1ccc(Oc2ccccc2Cl)cc1
> 99.5 µM	c1ccc2sc(C3CCN(Cc4n[nH]c5c4CCCC5)CC3)nc2c1
> 99.5 µM	O=C(N[C@@H]1CCc2cn[nH]c2C1)c1cccc2c1NC(=O)[C@]1(CCCN1)C2
> 25 µM	O=C(Nc1cc(-c2cccnc2)ccn1)c1cc2n(n1)CC1(CC1)C2

IC50	SMILES
> 99.5 µM	CN1CCc2ccc(C(=O)N3CCNc4ccccc4C3)cc2C1
> 99.5 µM	NCc1ccccc1C1CCN(C(=O)[C@@]23CNC[C@]2(C(F)(F)F)C3)CC1
> 99.5 µM	CCc1n[nH]cc1-c1cccc([C@H](NC(=O)OCc2ccccc2)C(=O)Nc2cccc(CN)c2)c1
> 99.5 µM	NCc1cccnc1NS(=O)(=O)c1ccc(Oc2ccccc2Cl)cc1
> 99.5 µM	Cc1ccc(NC(=O)c2cc(C3CC3)n(C)c2C)cc1CN
> 99.5 µM	N[C@]12CCC[C@](C(=O)NCc3ccc4c(c3)CCNCC4)(CC1)C2
> 99.5 µM	C[C@H]1CN(C)C[C@@H](C(=O)Nc2cccc(CN)c2)O1
0.21 µM	O=C(Nc1ccc2c(c1)CNC2)c1cc(Cl)cc2[nH]c(COc3ccccn3)nc12
> 99.5 µM	NCc1ccc(C[C@H](NC(=O)c2ccccc2)C(=O)N2CCCCC2)cc1
> 99.5 µM	CCc1nc2ccc(Cl)cc2n1Cc1ccc2c(c1)CNC2
> 99.5 µM	NCc1cccc(NC(=O)[C@H](NS(=O)(=O)C[C@H]2COCCO2)c2ccc(OCc3ccccc3)cc2)c1
3.2 µM	CCOC(=O)Nc1cc(Cl)cc(C(=O)Nc2cccc(CN)c2)c1
> 99.5 µM	O=C(O)c1cc2cc(-c3cccc([C@H]4COCCN4)c3)ccc2[nH]1
54 µM	O=Cc1ccc(N2CCC(C(=O)Nc3ncc(Br)cc3O)CC2)cc1
30.9 µM	O=C(Nc1cc(Cl)cc(C(=O)Nc2ccc(-n3nn[nH]c3=O)cc2)c1)OCc1ccccc1
0.236 µM	O=C(Nc1ccc2c(c1)CNC2)c1cc(F)cc(-c2cnc3n2CCC3)c1
70.3 µM	CN(C)Cc1ccc(NC(=O)c2cc(Cl)cc(NC(=O)OCc3ccccc3)c2)cc1
14.6 µM	NCc1cc(NC(=O)c2cc(Cl)cc(NC(=O)OCc3ccccc3)c2)cc(C2=CC[C@H](C(=O)O)CC2)c1
> 25 µM	O=C1Cc2c(cccc2C(=O)N[C@H]2CC[C@H](OC3CCCC3)CC2)N1
10.2 µM	Cc1cc(NC(=O)OCc2ccccc2)cc(C(=O)Nc2cccc(CN)c2)c1
> 99.5 µM	Nc1nc2ccc(NC(=O)c3cc(Cl)cc(NC(=O)OCc4ccccc4)c3)cc2[nH]1
> 99.5 µM	NCc1cccc(NC(=O)Cc2ccc(OCc3ccccc3)cc2)c1
27.8 µM	O=C(O)c1ccsc1NS(=O)(=O)c1ccc(Oc2ccccc2Cl)cc1
0.449 µM	C=CC[C@H]1NCc2cc(NC(=O)c3cc(Cl)cc4[nH]ncc34)ccc21
0.875 µM	CCS(=O)(=O)c1ccc(Cl)cc1[C@H](Nc1ccc2c(c1)CNC2)C(=O)NCC(F)F

IC50	SMILES
12.3 µM	NCc1cc(-c2ccncc2)cc([C@@H]2C[C@H]2c2cc(Cl)cc(NC(=O)OCc3ccccc3)c2)c1
> 99.5 µM	O=C(O)c1cc(Cl)ccc1S(=O)(=O)Nc1ccc(Oc2ccccn2)cc1
23.3 µM	CN(C(=O)OCc1ccccc1)[C@H](C(=O)Nc1cccc(CN)c1)c1ccc(OCc2ccccc2)cc1
> 25 µM	Cc1c(C(=O)Nc2cc3c(cn2)OCC3)cc(C2CC2)n1C
> 99.5 µM	NC(=O)c1ccccc1NS(=O)(=O)c1ccc(Oc2ccccc2Cl)cc1
18.7 µM	O=C(Nc1ccc2c(c1)CNC2)c1cc(=O)[nH]c2c(F)cccc12
> 99.5 µM	O=C(O)c1cc(Cl)cc(NS(=O)(=O)c2ccc(Oc3ccccc3Cl)cc2)c1
39.4 µM	NCc1cccc(NC(=O)c2cccc(Oc3ccc(Cl)c(Cl)c3)n2)c1
> 99.5 µM	CCn1c(=O)c(N2CC[C@H](CO)C2)nc2cc(C(N)=O)ccc21
> 99.5 µM	Cc1c(C(=O)Nc2cc(CCCN)ccn2)cc(C2CCC2)n1C
8.13 µM	CC(=Cc1cccc(CN)c1)c1cc(Cl)cc(NC(=O)OCc2ccccc2)c1
> 99.5 µM	NCc1cccc(NC(=O)[C@H](NC(=O)OCc2ccccc2)c2cccc(-c3cncc(F)c3)c2)c1
> 25 µM	O=C(Nc1cc(-c2cccnc2)ccn1)c1nnc(C2CC2)s1
> 99.5 µM	NCc1cccc(NC(=O)[C@@H](NC(=O)OCc2ccccc2)c2ccc(F)cc2)c1
5.07 µM	Nc1nc2c(Br)cc(C(=O)Nc3ccc4c(c3)CNC4)cc2s1
> 99.5 µM	Cc1ccc(CNC(=O)[C@@H](NC(=O)OCc2ccccc2)c2ccc(OCc3ccccc3)cc2)cn1
0.058 µM and 0.033 µM	O=C(Nc1ccc2c(c1)CNC2)c1cc(Cl)cc2c1cnn2C1CCOCC1
> 99.5 µM	Cc1nnc(S(=O)(=O)N2CCC([C@H](NC(=O)OCc3ccccc3)C(=O)Nc3cccc(CN)c3)CC2)s1
76.3 µM	O=C(NCC1CC1)c1cc(Cl)ccc1NS(=O)(=O)c1ccc(Oc2ccccc2Cl)cc1
0.051 µM and 0.034 µM	O=C(NCC(F)F)[C@H](Nc1ccc2c(c1)CNC2)c1cc(Cl)cc2c1CCC2
21 µM	CCCN1C(=O)[C@](Nc2ccc3c(c2)CNC3)(C(N)=O)c2cc(Cl)ccc21
> 25 µM	C[C@H](NC(=O)c1cccc2c1CC(=O)N2)c1cccc(S(C)(=O)=O)c1
> 99.5 µM	O=C(c1cc(Cl)ccc1NS(=O)(=O)c1ccc(Oc2ccccc2Cl)cc1)N1CCC[C@H](O)C1
> 25 µM	O=C(Cc1ccc2ncsc2c1)Nc1ccc2c(c1)CNC2
> 99.5 µM	Cc1cc(-c2ccc3[nH]c(C(=O)O)cc3c2)c2cc[nH]c(=O)c2c1

SMILES	IC50
CC(C)[C@H](N)P(=O)(Oc1ccc(F)cc1)Oc1ccc(F)cc1	> 99.5 µM
C[C@@H]1c2cccnc2CCN1Cc1cccc(CN(C)C)c1	> 99.5 µM
O=C(Nc1ccccc1)Oc1ccccc1 [PHENYL PHENYLCARBAMATE]	> 100 µM
